According to publication PMC7816213 (Journal of medicinal chemistry, 2020):

Key:
Tpl2 = settings: read-out: Tpl2 IC50; Reported by Ni et al; cited from earlier work
Microsomal stability = settings: for Microsomal stability (%): % compound remaining in mouse liver microsomes at 30 min
STK17B [1] = target: T1, STK17B (Homo sapiens, UniProt O94768); assay: NanoBRET target engagement in HEK293 cells, STK17B; format: cell-based
T1 sequence (O94768 1-372): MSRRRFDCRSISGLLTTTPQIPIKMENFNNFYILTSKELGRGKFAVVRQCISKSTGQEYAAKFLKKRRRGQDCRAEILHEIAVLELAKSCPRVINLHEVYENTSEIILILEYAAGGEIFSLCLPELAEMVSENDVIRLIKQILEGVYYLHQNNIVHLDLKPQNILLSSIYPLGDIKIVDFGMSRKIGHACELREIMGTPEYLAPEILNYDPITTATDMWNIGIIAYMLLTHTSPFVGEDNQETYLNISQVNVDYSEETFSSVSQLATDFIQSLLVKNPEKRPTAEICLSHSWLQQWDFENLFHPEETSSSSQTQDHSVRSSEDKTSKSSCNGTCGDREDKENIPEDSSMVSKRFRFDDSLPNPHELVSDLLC

STK17B [2] = target: T1, STK17B; settings: KinaseSeeker IC50, compared with 4
[3] = target: 403 wild type human kinases; assay: DiscoverX KINOMEscan scanMAX panel; format: binding; settings: for kinases with >75% displacement of the immobilized ligand: scanMAX panel of 403 wild type human kinases at 1 μM
STK17B [4] = target: T1, STK17B; assay: DiscoverX KINOMEscan binding, STK17B; settings: DiscoverX binding assay
STK17A = target: T2, STK17A (Homo sapiens, UniProt Q9UEE5); assay: Eurofins enzyme inhibition assay, STK17A; format: biochemical
T2 sequence (Q9UEE5 1-414): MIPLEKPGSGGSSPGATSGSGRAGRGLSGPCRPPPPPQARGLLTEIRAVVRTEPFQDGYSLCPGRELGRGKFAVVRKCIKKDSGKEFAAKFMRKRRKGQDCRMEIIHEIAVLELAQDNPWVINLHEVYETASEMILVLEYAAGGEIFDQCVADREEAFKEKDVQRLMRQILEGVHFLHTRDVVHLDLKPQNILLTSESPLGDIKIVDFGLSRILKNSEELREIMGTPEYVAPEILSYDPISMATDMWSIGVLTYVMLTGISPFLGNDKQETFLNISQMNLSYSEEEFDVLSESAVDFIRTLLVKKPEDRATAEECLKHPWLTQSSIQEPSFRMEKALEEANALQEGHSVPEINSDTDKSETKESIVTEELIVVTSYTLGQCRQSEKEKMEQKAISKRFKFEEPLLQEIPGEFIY

STK17B [5] = target: T1, STK17B
STK17B [6] = target: T1, STK17B; assay: biochemical
DAPK family = settings: read-out: IC50 on the DAPK family; cited from earlier work

CSc1ccc(-c2cc3ncnc(SCC(=O)O)c3s2)cc1 [Compound 4, 2-((6-(4-(Methylthio)phenyl)thieno[3,2-d]pyrimidin-4-yl)thio)acetic acid]
IC50 (Tpl2): 3.4 µM
compound consumed in mice liver microsomes (Microsomal stability; After 30 minutes): 100%

O=C(O)COc1ncnc2cc(-c3ccc4[nH]ncc4c3)sc12 [Compound 6, reference compound]
IC50 (Tpl2): 1 µM

CSc1cccc(-c2cc3ncnc(SCC(=O)O)c3s2)c1 [Compound 11b, 2-((6-(3-(Methylthio)phenyl)thieno[3,2-d]pyrimidin-4-yl)thio)acetic acid]
fold less potent than 4 in the STK17B cell assay (STK17B [1]; NanoBRET IC50, compared with 4): about 2.5 fold
fold less potent than 4 in the STK17B binding assay (STK17B [2]): about 2.5 fold

O=C(O)CSc1ncnc2cc(-c3ccc(C4CC4)cc3)sc12 [Compound 11h, 2-((6-(4-Cyclopropylphenyl)thieno[3,2-d]pyrimidin-4-yl)thio)acetic acid]
Microsomal stability (%) (Microsomal stability): > 50%

O=C(O)CSc1ncnc2cc(-c3cccc(N4CCOCC4)c3)sc12 [Compound 11o, 2-((6-(3-Morpholinophenyl)thieno[3,2-d]pyrimidin-4-yl)thio)acetic acid]
Microsomal stability (%) (Microsomal stability): > 50%

O=C(O)CSc1ncnc2cc(-c3ccc(N4CCOCC4)cc3)sc12 [Compound 11p, 2-((6-(4-Morpholinophenyl)thieno[3,2-d]pyrimidin-4-yl)thio)acetic acid]
Microsomal stability (%) (Microsomal stability): > 50%

O=C(O)CSc1ncnc2cc(-c3cc4ccccc4s3)sc12 [Compound 11s, 2-((6-(Benzo[b]thiophen-2-yl)thieno[3,2-d]pyrimidin-4-yl)thio)acetic acid]
kinases with >75% displacement of the immobilized ligand [3]: Eight
selectivity over CAMKK1 and CAMKK2 (STK17B [4]): < 10 fold
selectivity for STK17B over CAMKK2 in cells (STK17B [1]; NanoBRET target engagement assays): > 10 fold
IC50 (STK17A): 5 to 9 µM
selectivity for STK17B over STK17A (STK17B [5]; enzyme assays): > 100 fold
selectivity for STK17B over all of the other kinases tested (STK17B [5]; enzyme assays): > 100 fold
IC50 (STK17B [6]): 0.043 ± 0.0035 µM
Microsomal stability (%) (Microsomal stability): > 50%

COc1ccc(-c2cc3ncnc(SCC(=O)O)c3s2)cc1F [Compound 11z, 2-((6-(3-Fluoro-4-methoxyphenyl)thieno[3,2-d]pyrimidin-4-yl)thio)acetic acid]
drop in cell potency (STK17B [1]; NanoBRET, compared with 11y): 1.3 fold

O=C(O)CSc1ncnc2sc(-c3cc4ccccc4s3)cc12 [Compound 19g, 2-((6-(Benzo[b]thiophen-2-yl)thieno[2,3-d]pyrimidin-4-yl)thio)acetic acid]
kinases with >65% displacement of the immobilized ligand ([3]; scanMAX panel at 1 μM): 5
kinases with >75% displacement of the immobilized ligand [3]: no kinase
fold less active as an inhibitor of STK17B than the chemical probe 11s (STK17B [5]; 19g compared to 11s (Table 9)): > 100 fold

CN1CCN(c2ccc3nc(-c4c(N)c5c(F)cccc5[nH]c4=O)[nH]c3c2)CC1 [dovitinib]
IC50 (DAPK family): 1 to 5 µM
